These results are taken from patent US20090131356A1, “miR-15, miR-26, miR-31, miR-145, miR-147, miR-188, miR-215, miR-216, miR-331, mmu-miR-292-3P REGULATED GENES AND PATHWAYS AS TARGETS FOR THERAPEUTIC INTERVENTION” (ASURAGEN, INC., priority 2006, published 2009).

Series [1] has as its system A549 and H1299 cells. Nature of the series: Dose-dependent Alamar Blue proliferation assay (0 pM to 3 nM). Type of series: cell-based, human. The settings on record: for % proliferation: normalized to mock-transfected cells (0 pM miRNA). As for the experimental part:
The inventors determined sensitivity and specificity of hsa-miR-147 by administering hsa-miR-147 or negative control miRNA at increasing concentrations, ranging from 0 pM to 3 nM. Delivery of miRNA and cellular proliferation of A549 and H1299 cells was assessed as described above. Alamar Blue values were normalized to values obtained from mock-transfected cells (0 pM=100% proliferation). As shown in FIG. 3 and Table 8, increasing amounts of negative control miRNA had no effect on cellular proliferation of A549 or H1299 cells. In contrast, the growth-inhibitory phenotype of hsa-miR-147 is dose-dependent and correlates with increasing amounts of hsa-miR-147. Hsa-miR-147 induces a therapeutic response at concentrations as low as 300 pM.
In general terms: Resazurin is reduced to fluorescent resorufin, in cell work by metabolically active cells.

Series [2] relates to Du145 human prostate cancer cells. Nature of the series: Long-term growth curve with repeated electroporation, Du145. Type of series: cell-based. The settings on record: 1.6 μM miRNA electroporated, repeated on days 7 and 14, day 20. As for the experimental part: The inventors assessed the therapeutic effect of hsa-miR-15a for prostate cancer by using the Du145 human prostate cancer cell line, derived from a brain metastasis (Stone et al., 1978). The inventors conducted growth curve experiments in the presence of miRNA for up to 20 days. Since in vitro transfections of naked interfering RNAs, such as synthetic miRNA, are transient by nature and compromised by the dilution of the miRNA during ongoing cell divisions, miRNA was administered at multiple time points (Bartlett et al., 2006; Bartlett et al., 2007). To accommodate miRNA delivery into a large quantity of cells, the inventors employed the electroporation method for delivery of hsa-miR-15a or negative control miRNA into Du145 human prostate cancer cells. Briefly, 0.5×10^6 Du145 cells were electroporated with 1.6 μM hsa-miR-15a or negative control using the BioRad Gene Pulser Xcell™ instrument (BioRad Laboratories Inc., Hercules, Calif., USA), seeded and propagated in regular growth medium. Experiments were carried out in triplicates. When the control cells reached confluence (days 7 and 14), cells were harvested, counted and electroporated again with the respective miRNAs. To ensure similar treatment of both conditions as well as to accommodate exponential growth, the cell numbers used for the second and third electroporation were titrated down to the lowest count. The population doubling was calculated from these electroporation events using the formula PD=ln(Nf/N0)/ln2 and adjusting for the fact that approximately 72% of newly seeded cells adhere to the plate. Cell counts were extrapolated and plotted on a linear scale (FIG. 10). Arrows represent electroporation days. Standard deviations are included in the graphs.
To evaluate the therapeutic activity of hsa-miR-147 over an extended period of time, the inventors conducted growth curve experiments in the presence of miRNA for up to 21 days. Since in vitro transfections of naked interfering RNAs, such as synthetic miRNA, are transient by nature and compromised by the dilution of the oligo during ongoing cell divisions, miRNA was administered at multiple time points (Bartlett et al., 2006; Bartlett et al., 2007). To accommodate miRNA delivery into a large quantity of cells, the inventors employed the electroporation method to delivery hsa-miR-147 or negative control miRNA into PC3 and Du145 human prostate cancer cells. […] When the control cells reached confluence (days 7 and 14), cells were harvested, counted and electroporated again with the respective miRNAs. […] The population doubling was calculated from these electroporation events using the formula PD=ln(Nf/N0)/ln2 and adjusting for the fact that approximately 72% of newly seeded cells adhere to the plate. […]

The subject of series [3] is PC3 human prostate cancer cells. Nature of the series: Long-term growth curve with repeated electroporation, PC3. Type of series: cell-based. Conditions: 1.6 μM electroporated, repeated on days 7 and 14; by day 21. Here is the method:
To evaluate the therapeutic activity of hsa-miR-147 over an extended period of time, the inventors conducted growth curve experiments in the presence of miRNA for up to 21 days. Since in vitro transfections of naked interfering RNAs, such as synthetic miRNA, are transient by nature and compromised by the dilution of the oligo during ongoing cell divisions, miRNA was administered at multiple time points (Bartlett et al., 2006; Bartlett et al., 2007). To accommodate miRNA delivery into a large quantity of cells, the inventors employed the electroporation method to delivery hsa-miR-147 or negative control miRNA into PC3 and Du145 human prostate cancer cells. Briefly, 1×10^6 PC3 cells and 0.5×10^6 Du145 cells were electroporated with 1.6 μM hsa-miR-147 or negative control using the BioRad Gene Pulser Xcell™ instrument (BioRad Laboratories Inc., Hercules, Calif., USA), seeded and propagated in regular growth medium. Experiments with PC3 and Du145 cells were carried out in triplicates. When the control cells reached confluence (days 7 and 14), cells were harvested, counted and electroporated again with the respective miRNAs. […] The population doubling was calculated from these electroporation events using the formula PD=ln(Nf/N0)/ln2 and adjusting for the fact that approximately 72% of newly seeded cells adhere to the plate. […]

The subject of series [4] is H226 lung cancer cells. Nature of the series: Long-term growth curve with repeated electroporation, H226. Type of series: cell-based, human. The settings on record: 1.6 μM electroporated, repeated on days 6, 17 and 25; day 31; relative to control cells (100%). As for the experimental part: To evaluate the therapeutic activity of hsa-miR-147 over an extended period of time, the inventors conducted growth curve experiments in the presence of miRNA for up to 31 days in H226 lung cancer cells. Since in vitro transfections of naked interfering RNAs, such as synthetic miRNA, are transient by nature and compromised by the dilution of the oligo during ongoing cell divisions, miRNA was administered at multiple time points (Bartlett et al., 2006; Bartlett et al., 2007). To accommodate miRNA delivery into a large quantity of cells, hsa-miR-147 or negative control miRNA were delivered by the electroporation method. Briefly, 1×10^6 H226 were electroporated in triplicate with 1.6 μM hsa-miR-147 or negative control using the BioRad Gene Pulser Xcell™ instrument (BioRad Laboratories Inc., Hercules, Calif., USA), seeded and propagated in regular growth medium. When the control cells reached confluence (days 6, 17 and 25), cells were harvested, counted and electroporated again with the respective miRNAs. […] The population doubling was calculated from these electroporation events using the formula PD=ln(Nf/N0)/ln2 and adjusting for the fact that approximately 72% of newly seeded cells adhere to the plate. […]

The subject of series [5] is SCLC and NSCLC cells. Conditions: various lung cancer cells, SCLC and NSCLC (Tsai et al., 1993; Ohsaki et al., 1992); cited from earlier work.

Consider “hsa-miR-147: Synthetic pre-miR-147 (Ambion AM17100; Dharmacon in vivo); mature sequence GUGUGUGGAAAUGCUUCUGC, MIMAT0000251, SEQ ID NO:114 (synthetic pre-miR (Ambion/Dharmacon), chemistry not given here; listed as Homo sapiens)”, for which the “% proliferation” value in series [1] (A549 Cells, 3 pM) amounted to 104.77%; in series [1] (A549 Cells, 30 pM), 99.22%; in series [1] (A549 Cells, 300 pM), 88.24%; in series [1] (A549 Cells, 3,000 pM), 75.78%; in series [1] (H1299 Cells, 3 pM), 93.08%; in series [1] (H1299 Cells, 30 pM) it was 88.20%. Also, the “% proliferation” value is given as 81.82% in series [1] (H1299 Cells, 300 pM) and 69.70% in series [1] (H1299 Cells, 3,000 pM). Besides, in series [1] (concentrations 0 pM to 3 nM, normalized to mock-transfected cells), the “lowest concentration inducing a therapeutic response” value was determined as 300 pM. For the same molecule, the “cells relative to cells electroporated with negative control miRNA” value in series [2] is reported as 2.90%. Besides, the “inhibition of Du145 cell growth” value in series [2] (relative to proliferation of control cells (100%)) came to 97.1%. For the same molecule, the “fate of PC3 cells in long-term growth curve” value in series [3] was “eliminated”. For the same molecule, the “inhibition of H226 cell growth” value in series [4] was determined as 90.9%. In series [4], the remaining cells is 9.1%.
On to `COc1cc([C@@H]2c3cc4c(cc3[C@@H](O[C@@H]3O[C@@H]5CO[C@@H](C)O[C@H]5[C@H](O)[C@H]3O)[C@H]3COC(=O)[C@H]23)OCO4)cc(OC)c1O` [Etoposide, etoposide], for which the IC50 (as a rule, the concentration needed to halve the response being measured) in series [5] was 1 to 25 µM.
